System: CRL 1730 HUVECs
Experiment: Microarray transcriptomics of HUVEC (HGERT/HG, HG/NG)
Assay type: cell-based, human
[1] = HUVEC, 5 mM ERT + 30 mM glucose vs 30 mM glucose
[2] = Prostate cancer, 8MP signaling pathway
[3] = Prostate cancer, Calcium/calmodulin
[4] = Prostate cancer, Carbohydrate binding
[5] = Prostate cancer, DNA binding, second listing
[6] = Prostate cancer, ILK signaling (integrin linked kinase)
[7] = Prostate cancer, Reactive oxygen species
[8] = Prostate cancer, Tyrosine phosphatase activity
[9] = Prostate cancer, Zinc ion transport

Compound: OC[C@@H](O)[C@@H](O)CO [ERT, meso-1,2,3,4-tetrahydroxybutane]
- HGERT/HG transcript TRIT1 [1]: 0.98 Ω
- HGERT/HG transcript TXNDC11 [1]: Ψ 1.01
- HGERT/HG transcript U8A3 [1]: 0.99
- HGERT/HG transcript USP22 [1]: Ψ 1.01
- HGERT/HG transcript VIM [1]: 1.00 Ω
- HGERT/HG transcript VPS4B [1]: 0.99 Ω
- HGERT/HG transcript VPS26A [1]: 0.99
- HGERT/HG transcript WDFY2 [1]: Ψ 1.01
- HGERT/HG transcript YME1L1 [1]: 1.00 Ω
- HGERT/HG transcript ZMYM1 [1]: 0.98 Ω
- HGERT/HG transcript ZNF59B [1]: 0.99
- HGERT/HG transcript ZNF318 [1]: Ψ 1.02
- HGERT/HG BMP6 (Bone morphogenetic protein 6) [2]: Ψ 1.01
- HGERT/HG UBE2D1 (Ubiquitin-conjugating enzyme E2D1 (U8C4/5 homolog, yeast)) [2]: 0.99 Ω
- HGERT/HG CORO1A (Coronin, actin binding protein, 1A) (Prostate cancer, Actin binding): 0.94 Ω
- HGERT/HG PLEC1 (Plectin) (Prostate cancer, Actin binding): Ψ 1.03
- HGERT/HG C6orf66 (NADH dehydrogenase (ubiquinone) 1 alpha subcomplex, assembly factor 4) [3]: 0.99 Ω
- HGERT/HG CIB1 (Calcium and integrin binding 1 (calmyrin)) [3]: Ψ 1.00
- HGERT/HG GJC1 (Gap junction protein, gamma 1, 45kDa) [3]: Ψ 1.02
- HGERT/HG HPCAL1 (Hippocalcin-like 1) [3]: Ψ 1.01
- HGERT/HG SEC31A (SEC31 homolog A (S. cerevisiae)) [3]: Ψ 1.01
- HGERT/HG SLC25A24 (Solute carrier family 25 (mitochondrial carrier; phosphate carrier), member 24) [3]: 0.99 Ω
- HGERT/HG B4GALT4 (UDP-Gal:betaGlcNAc beta 1,4-galactosyltransferase, polypeptide 4) [4]: 0.98 Ω
- HGERT/HG C10orf125 (Chromosome 10 open reading frame 125) [4]: 0.99 Ω
- HGERT/HG EXTL3 (Exostoses (multiple)-like 3) [4]: Ψ 1.02
- HGERT/HG GCS2 (Mannosyl-oligosaccharide glucosidase) [4]: Ψ 1.02
- HGERT/HG ADAR (Adenosine deaminase, RNA-specific) (Prostate cancer, DNA binding): Ψ 1.01
- HGERT/HG ATF6 (Activating transcription factor 6) (Prostate cancer, DNA binding): Ψ 1.01
- HGERT/HG BBX (Bobby sox homolog (Drosophilia)) (Prostate cancer, DNA binding): Ψ 1.02
- HGERT/HG DBT (Dihydrolipoamide branched chain transacylase E2) (Prostate cancer, DNA binding): Ψ 1.01
- HGERT/HG DEAF1 (Deformed epidermal autoregulatory factor 1 (Drosophila)) (Prostate cancer, DNA binding): Ψ 1.02
- HGERT/HG FOXC1 (Forkhead box C1) (Prostate cancer, DNA binding): Ψ 1.01
- HGERT/HG FOXN2 (Forkhead box N2) (Prostate cancer, DNA binding): 0.98 Ω
- HGERT/HG FOXN3 (Forkhead box N3) (Prostate cancer, DNA binding): Ψ 1.01
- HGERT/HG FOXP1 (Forkhead box P1) (Prostate cancer, DNA binding): Ψ 1.01
- HGERT/HG GPBP1 (GC-rich promoter binding protein 1) (Prostate cancer, DNA binding): 0.99 Ω
- HGERT/HG GZF1 (GDNF-inducible zinc finger protein 1) (Prostate cancer, DNA binding): Ψ 1.01
- HGERT/HG HBP1 (HMG-box transcription factor 1) (Prostate cancer, DNA binding): 0.99 Ω
- HGERT/HG HKR1 (HKR1, GU-Kruppel zinc finger family member) (Prostate cancer, DNA binding): 0.98 Ω
- HGERT/HG HNF1B (HNF1 homeobox B) (Prostate cancer, DNA binding): Ψ 1.03
- HGERT/HG KIN (KIN, antigenic determinant of recA protein homolog (mouse)) (Prostate cancer, DNA binding): 0.99 Ω
- HGERT/HG MRRF (Mitochondrial ribosome recycling factor) (Prostate cancer, DNA binding): 0.98 Ω
- HGERT/HG MXD4 (MAX dimerization protein 4) (Prostate cancer, DNA binding): Ψ 1.02
- HGERT/HG PCBP1 (Poly(rC) binding protein 1) (Prostate cancer, DNA binding): Ψ 1.01
- HGERT/HG PIAS4 (Protein inhibitor of activated STAT, 4) (Prostate cancer, DNA binding): Ψ 1.03
- HGERT/HG POLG (Polymerase (DNA directed), gamma) (Prostate cancer, DNA binding): Ψ 1.01
- HGERT/HG POLO1 (Polymerase (DNA directed), delta 1, catalytic subunit 125kDa) (Prostate cancer, DNA binding): Ψ 1.02
- HGERT/HG POLR2K (Polymerase (RNA) II (DNA directed) polypeptide K, 7.0kDa) (Prostate cancer, DNA binding): 0.98 Ω
- HGERT/HG POLR3F (Polymerase (RNA) III (DNA directed) polypeptide F, 39 kDa) (Prostate cancer, DNA binding): 0.98 Ω
- HGERT/HG PRRX1 (Paired related homeobox 1) (Prostate cancer, DNA binding): Ψ 1.01
- HGERT/HG PUF60 (Poly-U binding splicing factor 60KDa) (Prostate cancer, DNA binding): Ψ 1.01
- HGERT/HG RABGEF1 (RAB guanine nucleotide exchange factor (GEF) 1) (Prostate cancer, DNA binding): 0.99 Ω
- HGERT/HG RNF11 (Ring finger protein 11) (Prostate cancer, DNA binding): 0.99 Ω
- HGERT/HG RPA3 (Replication protein A3, 14kDa) (Prostate cancer, DNA binding): 0.99 Ω
- HGERT/HG RYBP (RING1 and YY1 binding protein) (Prostate cancer, DNA binding): Ψ 1.01
- HGERT/HG SARNP (SAP domain containing ribonucleoprotein) (Prostate cancer, DNA binding): 0.98 Ω
- HGERT/HG SOS1 (Son of sevenless homolog 1 (Drosophila)) (Prostate cancer, DNA binding): Ψ 1.06
- HGERT/HG SOX4 (SRY (sex determining region Y)-box 4) (Prostate cancer, DNA binding): Ψ 1.01
- HGERT/HG T8RG1 (Transforming growth factor beta regulator 1) (Prostate cancer, DNA binding): Ψ 1.02
- HGERT/HG TCF12 (Transcription factor 12) (Prostate cancer, DNA binding): 0.99 Ω
- HGERT/HG TCF25 (Transcription factor 25 (basic helix-loop-helix)) (Prostate cancer, DNA binding): Ψ 1.01
- HGERT/HG TOX4 (TOX high mobility group box family member 4) (Prostate cancer, DNA binding): Ψ 1.01
- HGERT/HG TRIM26 (Tripartite motif-containing 26) (Prostate cancer, DNA binding): 0.99 Ω
- HGERT/HG TTF1 (Transcription termination factor, RNA polyrnerase 1) (Prostate cancer, DNA binding): Ψ 1.01
- HGERT/HG UBN1 (Ubinuclein 1) (Prostate cancer, DNA binding): Ψ 1.02
- HGERT/HG ZBED3 (Zinc finger, BED-type containing 3) (Prostate cancer, DNA binding): Ψ 1.01
- HGERT/HG ZNF83 (Zinc finger protein 83) (Prostate cancer, DNA binding): 0.98 Ω
- HGERT/HG ZNF232 (Zinc finger protein 232) (Prostate cancer, DNA binding): Ψ 1.01
- HGERT/HG ZNF267 (Zinc finger protein 267) (Prostate cancer, DNA binding): 0.98 Ω
- HGERT/HG ZNF562 (Zinc finger protein 562) (Prostate cancer, DNA binding): Ψ 1.03
- HGERT/HG ZNF614 (Zinc finger protein 614) (Prostate cancer, DNA binding): 0.98 Ω
- HGERT/HG ZNFT84 (Zinc finger protein 784) (Prostate cancer, DNA binding): 0.99 Ω
- HGERT/HG pdcd6 (Aryl-hydrocarbon receptor repressor) (Prostate cancer, DNA binding): 0.99 Ω
- HGERT/HG PIAS4 (Protein inhibitor of activated STAT, 4) [5]: Ψ 1.03
- HGERT/HG RNF11 (Ring finger protein 11) [5]: 0.99 Ω
- HGERT/HG RYBP (RING1 and YY1 binding protein) [5]: Ψ 1.01
- HGERT/HG TTF1 (Transcription termination factor, RNA polymerase 1) [5]: Ψ 1.01
- HGERT/HG JUP (Junction plakoglobin) (Prostate cancer, Endothelial cell-cell adhesion): Ψ 1.01
- HGERT/HG ACTN1 (Actinin, alpha 1) [6]: Ψ 1.01
- HGERT/HG FBUM1 (Gene ID 54751) [6]: Ψ 1.02
- HGERT/HG PXN (Paxillin) [6]: Ψ 1.01
- HGERT/HG RHOB (Ras homolog gene family, member B) [6]: Ψ 1.02
- HGERT/HG RHOJ (Ras homolog gene family, member J) [6]: Ψ 1.02
- HGERT/HG RSU1 (Ras suppressor protein 1) [6]: 0.99 Ω
- HGERT/HG VIM (Vimentin) [6]: 1.00 Ω
- HGERT/HG COX8A (Cytochrome c oxidase subunit VIIIA (ubiquitous)) [7]: 0.99 Ω
- HGERT/HG JUP (Junction plakaglobin) [7]: Ψ 1.01
- HGERT/HG MPHOSPH6 (M-phase phosphoprotein 6) [7]: 0.99 Ω
- HGERT/HG SDHD (Succinate dehydrogenase complex, subunit D, integral membrane protein) [7]: 0.98 Ω
- HGERT/HG SMOX (Spermine oxidase) [7]: 0.99 Ω
- HGERT/HG TCF12 (Transcription factor 12) [7]: 0.99 Ω
- HGERT/HG PAQR3 (Progestin and adipoQ receptor family member III) (Prostate cancer, Receptor activity): 0.98 Ω
- HGERT/HG PGRMC2 (Progesterone receptor membrane component 2) (Prostate cancer, Steroid hormone receptor activity): 0.98 Ω
- HGERT/HG SOAT1 (Sterol O-acyltransferase 1) (Prostate cancer, Sterol metabolism): 0.97 Ω
- HGERT/HG DUSP23 (Dual specificity phosphatase 23) [8]: 0.99 Ω
- HGERT/HG PTPLAD1 (Protein tyrosine phosphatase-like A domain containing 1) [8]: Ψ 1.01
- HGERT/HG SLC30A6 (Solute carrer family 30 (zinc transporter), member 6) [9]: 0.99 Ω
- HGERT/HG SLC30A9 (Solute carrer family 30 (zinc transporter), member 9) [9]: 0.99 Ω
- HGERT/HG SLC39A13 (Solute carrer family 39 (zinc transporter), member 13) [9]: Ψ 1.01
